Assay results from US12611423B2, “Medical use of tafoxiparin” (DILAFOR AB, priority 2022, dated 2026).

Test system: term pregnant, nulliparous women with an unripe cervix
Assay: Clinical phase II trial PPL17 (Parts A and B), subcutaneous tafoxiparin vs placebo
Format: in vivo, human
Conditions: for Labor induced with PGE-1, % of women: placebo 10.2%; for Fetal distress as indication for operative delivery (ODFD), % of women: placebo 22.7%; for patients with operative delivery, % / women needing instrumental delivery (FIG. 4, vaginal mode of partus): placebo 45.5%; for Labor induced with amniotomy, % of women: placebo 56.8%; for Labor induction with Balloon catheter, % of women: placebo 58.0%; for Labor induced, % of women: placebo 70.5%; for women needing instrumental delivery or caesarian section to reach partus (FIG. 5): placebo 52%; for women reaching partus by vaginal delivery with no need for instrumental delivery nor caesarian section (FIG. 5): placebo 48%; for number of subjects (women) that reach spontaneous onset of labor / subjects (women) that reach spontaneous onset of labor, % of n: cumulative, n = 37
Description: A clinical phase II trial is performed as a randomized, double-blind, placebo-controlled, parallel-group proof of concept study (Part A) with a conditional dose finding follow up study (Part B) to evaluate the efficacy, safety, tolerability and dose response of subcutaneously administered tafoxiparin as a supplement to induction therapy in term pregnant, nulliparous women with an unripe cervix. The study is performed in Sweden and Finland (PPL17), and an EMA (European Medicines Agency) description of the study can be found on the EU Clinical Trials Register web (www.clinicaltrialsregister.eu/ctr-search/search?query=PPL17).
A total of 170 term pregnant women are randomized to receive either 300 mg of tafoxiparin, or corresponding placebo (vehicle), administered subcutaneously every 24±3 hours and up to a total of 7 doses, or until partus (Part A).
In the dose finding follow up study (Part B), a total of 164 term pregnant women are randomized to receive either 75 or 150 mg of tafoxiparin administered subcutaneously every 24±3 hours […] and up to a total of 7 doses, or until partus.
To assess the efficacy of tafoxiparin on cervical ripening/cervical ripening rate, during and up to the first seven days of treatment, measured by Bishop score. All women must be examined to check the cervical state before enrollment.
Tafoxiparin/Placebo is supplied by Dilafor AB to the site as kits designed to constitute 300 mg of tafoxiparin or placebo for daily administration. Apart from the active substance, each ml of study drug will constitute 0.015 M phosphate buffer. The study medication kit for each patient will contain 8 doses consisting of 2 vials containing a minimum extractable volume of 1.6 ml of 150 mg/ml of tafoxiparin or placebo. One dose is a reserve dose in case a dose is rendered unusable. The investigational product should be administered subcutaneously every 24±3 hours by the site staff for up to 7 doses, or until partus. At each dosing time 1.0 ml of the drug will be extracted from each of the 2 vials and injected as separate s.c. injections in the abdominal or hip region.
Tafoxiparin/Placebo is supplied by Dilafor AB to the site as kits designed to constitute 75 or 150 mg of tafoxiparin for daily administration. Apart from the active substance, each ml of study drug will constitute 0.015 M phosphate buffer. The study medication kit for each patient will contain 8 doses consisting of 2 vials for each injection occasion containing a minimum extractable volume of 1.6 ml of 150 mg/ml of tafoxiparin or placebo. For subjects receiving 75 mg of tafoxiparin, one vial will contain active substance and one containing placebo. For subjects receiving 150 mg of tafoxiparin, both vials will contain active substance. One dose is a reserve dose in case a dose is rendered unusable. The investigational product should be administered subcutaneously every 24±3 hours by the site staff for up to 7 doses, or until partus. At each dosing time, 0.5 ml of the drug will be extracted from each of the 2 vials and injected as separate s.c. injections in the abdominal or hip region.
If the subject is found to be eligible for the study, they will be randomized to study treatment, i.e. 300 mg of tafoxiparin or corresponding placebo daily (Part A), or 75 or 150 mg daily (Part B).
The study medication will be administered subcutaneously in the abdominal or hip region for up to a total of 7 doses or until labor induction or spontaneous onset of labor. If the cervix is still unripe after 7 doses of IMP, the patient is given cervical balloon catheter as a mean of labor induction.
Subjects who enter into spontaneous onset of labor after 1-7 doses of IMP should be managed according to clinical routines.
Subjects who are given 4-7 doses without entering into spontaneous onset of labor, but with a ripe cervix (Bishop Score ≥6), should be induced into labor by amniotomy and oxytocin treatment, but not before 4 treatment doses have been given. […]

In the case of tafoxiparin, the “Labor induced with oxytocin, number of women” value (150 mg, n = 85) is reported as 38, the “Labor induced, number of women” value (150 mg, n = 85) is reported as 48 and the “Labor induction with Balloon catheter, number of women” value (150 mg, n = 85) is reported as 37. The “Number of patients with operative delivery” value (150 mg, n = 85) was 41, the “Labor induced with PGE-1, % of women” value (150 mg, n = 85) was 8.2% and the “Fetal distress as indication for operative delivery (ODFD), % of women” value (150 mg, n = 85) was 23.5%. For the same substance, the “patients with operative delivery, %” value (150 mg, n = 85) was 48.2%, the “Labor induced with oxytocin, % of women” value (150 mg, n = 85, placebo 54.5%) was 44.7% and the “Labor induced with amniotomy, % of women” value (150 mg, n = 85) was 45.9%. The “Labor induction with Balloon catheter, % of women” value (150 mg, n = 85) was 43.5%, the “Labor induced, % of women” value (150 mg, n = 85) was 56.5% and the “women needing instrumental delivery (FIG. 4, vaginal mode of partus)” value (150 mg, women with spontaneous onset of labor, 9 of the 32 women, p-value 0.422) was 28.1%. The “women needing instrumental delivery or caesarian section to reach partus (FIG. 5)” value (150 mg, women with spontaneous onset of labor, 13 of 36 women) was 36.1%, the “women reaching partus by vaginal delivery with no need for instrumental delivery nor caesarian section (FIG. 5)” value (150 mg, women with spontaneous onset of labor, 23 of 36 women) was 63.9% and the “time point of spontaneous onset of labor (FIG. 3, change of Bishop score)” value (300 mg and 150 mg, women with spontaneous onset of labor) was “achieved spontaneous onset of labor at an earlier time point than women treated with 75 mg tafoxiparin and placebo”. For the same substance, the “women achieving spontaneous onset of labor (FIG. 1)” value (300 mg s.c. once daily up to 7 doses, 37 women of 90, p-value=0.089 (part A 0.080), placebo 28.7%) was 41.1%, the “development day-by-day towards a spontaneous onset of labor” value (300 mg, 150 mg, 75 mg, Table 3) was “shows a dose-response relationship” and the “women reaching spontaneous onset of labor with uncomplicated delivery” value (300 mg, 27 of the 33 women, placebo 54.5%) was 81.8%. For the same substance, the “number of subjects (women) that reach spontaneous onset of labor” value (“number of subjects” for short) (300 mg, Study day 1) was 2, the “subjects (women) that reach spontaneous onset of labor, % of n” value (shortened to “subjects … % of n”) (300 mg, Study day 1) was “(5%)” and the “number of subjects” value (300 mg, Study day 2) was 11. The “subjects … % of n” value (300 mg, Study day 2) was “(30%)”, the “number of subjects” value (300 mg, Study day 3) was 18 and the “subjects … % of n” value (300 mg, Study day 3) was “(49%)”. The “number of subjects” value (300 mg, Study day 4) was 23, the “subjects … % of n” value (300 mg, Study day 4) was “(62%)” and the “number of subjects” value (300 mg, Study day 5) was 30. The “subjects … % of n” value (300 mg, Study day 5) was “(81%)”, the “number of subjects” value (300 mg, Study day 6) was 34 and the “subjects … % of n” value (300 mg, Study day 6) was “(92%)”. For the same substance, the “number of subjects” value (300 mg, Study day 7) was 37, the “subjects … % of n” value (300 mg, Study day 7) was “(100%)” and the “Fetal distress as indication for operative delivery (ODFD), number of women” value (300 mg, n = 91) was 11. For the same substance, the “Labor induced with PGE-1, number of women” value (300 mg, n = 91) was 5, the “Labor induced with amniotomy, number of women” value (300 mg, n = 91) was 50 and the “Labor induced with oxytocin, number of women” value (300 mg, n = 91) was 45. The “Labor induced, number of women” value (300 mg, n = 91) was 53, the “Labor induction with Balloon catheter, number of women” value (300 mg, n = 91) was 42 and the “Number of patients with operative delivery” value (300 mg, n = 91) was 32. The “Labor induced with PGE-1, % of women” value (300 mg, n = 91) was 5.5%, the “Fetal distress as indication for operative delivery (ODFD), % of women” value (300 mg, n = 91) was 12.1% and the “patients with operative delivery, %” value (300 mg, n = 91) was 35.2%. For the same substance, the “Labor induced with oxytocin, % of women” value (300 mg, n = 91, placebo 54.5%) was 49.5%, the “Labor induced with amniotomy, % of women” value (300 mg, n = 91) was 54.9% and the “Labor induction with Balloon catheter, % of women” value (300 mg, n = 91) was 46.2%. The “Labor induced, % of women” value (300 mg, n = 91) was 58.2%, the “women needing instrumental delivery (FIG. 4, vaginal mode of partus)” value (300 mg, women with spontaneous onset of labor, 6 of the 33 women, p-value=0.048 (part A 0.053)) was 18.2% and the “women needing instrumental delivery or caesarian section to reach partus (FIG. 5)” value (300 mg, women with spontaneous onset of labor, 10 of the 37 women) was 27%. For the same substance, the “women reaching partus by vaginal delivery with no need for instrumental delivery nor caesarian section (FIG. 5)” value (300 mg, women with spontaneous onset of labor, 27 of the 37 women) was 73%, the “effect on achieving spontaneous onset of labor” value (all three doses 300 mg, 150 mg and 75 mg) was “effective for achieving spontaneous onset of labor” and the “effect on mode of partus” value (all three doses 300 mg, 150 mg and 75 mg, compared to placebo) was “effective for a person to reach partus by vaginal delivery and with less need for instrumental delivery or caesarian section”. For the same substance, the “effect on need for instrumental delivery” value (all three doses (300 mg, 150 mg and 75 mg), women with spontaneous onset of labor, compared to placebo) was “effective in reducing the need for instrumental delivery”, the “effect on need for intervention to achieve onset of labor” value (all three doses, compared to placebo) was “reduced the need for intervention in order to achieve onset of labor” and the “time point of achieving a ripe cervix” value (any one of the three doses 75 mg, 150 mg and 300 mg, vs placebo) was “achieve a ripe cervix at an earlier time point than women that have been treated with placebo”. The “need for operative delivery (caesarean section and instrumental delivery) due to fetal distress” value (conclusion of the clinical study) was “reduction of the need for operative delivery”, the “effect on cervical ripening (FIG. 3)” value (doses 300 mg and 150 mg) was “beneficial effect on cervical ripening” and the “estimated cervical ripening rate measured by Bishop score (FIG. 6)” value (first 7 days of treatment, all three doses (300 mg, 150 mg and 75 mg) compared to placebo) was “higher”. For the same substance, the “labor time up to vaginal delivery (partus) (FIG. 2, Kaplan-Meier)” value (women with spontaneous onset of labor, 300 mg (p=0.070), 150 mg (p 0.654), 75 mg (p 0.114) vs placebo) was “shorter labor time up to vaginal delivery (partus) compared to placebo”.
